Results published in PMC9317966, “Structure-function analysis of the AMPK activator SC4 and identification of a potent pan AMPK activator” (Biochemical Journal, 2022).

Experiments:
human GST-AMPK α2β2γ1 = target: T1, human GST-AMPK α2β2γ1 (Homo sapiens, UniProt O43741+P54646); assay: Radiolabel SAMS kinase assay, GST-AMPK from HEK293T/17 cells immobilised on glutathione-Sepharose; format: biochemical; conditions: 1 µM compound
T1 construct: triply transfected with full-length AMPK α1 or α2 (NH2-terminal GST fusion, pDEST27 vector); full-length AMPK α1 or α2 (NH2-terminal GST fusion, pDEST27 vector), β1 or β2 (COOH-terminal FLAG fusion, pcDNA3.1 vector); FLAG (C); made in house; host or cells: HEK293T/17 cells, transient triple transfection
From the text: (§1) We generated a series of compounds to investigate whether modification of the SC4 2-hydroxybiphenyl LHS fragment affects isoform selectivity, some of which (MSG008-MSG011) are presented in Table 1. We also synthesised compound MSG012 (example I-3-54 [32]), which was reported to activate α2β2γ1 with ∼100-fold greater potency compared with α1β1γ1. MSG012 differs from SC4 by substitution of the 2-hydroxyphenyl LHS fragment with 3-cyclohexen-4-yl-1-carboxylic acid, and 2-methylbenzoic acid RHS fragment with 1-hydroxy-N,N-dimethylcyclohexan-4-yl-1-carboxamide. Our initial screen involved measuring the activity of recombinant human GST-AMPK complexes expressed in HEK293T/17 cells and immobilised on glutathione-Sepharose (Supplementary Figure S1). Enzyme activity was measured by radiolabelling the synthetic SAMS peptide substrate in the absence or presence of 1 µM compound. Consistent with our previous characterisation, SC4 activated α1β1γ1, α2β1γ1 and α2β2γ1 >2.3-fold, and weakly activated α1β2γ1 1.3-fold (Figure 1A). […] The γ isoform had little influence on AMPK activation by MSG011 as most γ2 and γ3 complexes were activated >2.2-fold at 1 µM, with α1β2γ2 being the only exception (1.6-fold activation). […] Accordingly, MSG010, MSG011 and MSG012 can be classified as pan AMPK activators.
(§2) Adherent HEK293T/17 cells at ∼50% confluency were triply transfected with full-length AMPK α1 or α2 (NH2-terminal GST fusion, pDEST27 vector), β1 or β2 (COOH-terminal FLAG fusion, pcDNA3.1 vector), and γ1, γ2 or γ3 (NH2-terminal HA fusion, pMT2 vector) in the presence of FuGENE HD transfection reagent (Promega) as per the manufacturers protocol. Cells were harvested 48 hours post-transfection by first gently washing in ice cold phosphate buffered saline (PBS; Sigma–Aldrich), then scraping in ice cold lysis buffer (50 mM TRIS pH 7.5, 150 mM NaCl, 10% (v/v) glycerol, 50 mM NaF, 5 mM sodium pyrophosphate, 1% (v/v) Triton X-100, cOmplete protease inhibitor cocktail). Lysates were clarified by centrifugation (16 000g, 3 min, 4°C), flash frozen in liquid N2 and stored at −80°C until analysis. For radioactive kinase assays, AMPK was immobilised on glutathione Sepharose 4B resin (GE Healthcare) by incubation with lysates for 1.5 h at 4°C. Following centrifugation (1000g, 3 min, 4°C), the resin was washed twice in purification buffer (50 mM HEPES pH 7.4, 150 mM NaCl, 10% (v/v) glycerol, 0.02% (v/v) Tween-20), once in 50 mM HEPES pH 7.4 with 0.02% (v/v) Tween-20, then resuspended to a 50% slurry with 50 mM HEPES pH 7.4 and 10 µl added to the activity assays. For in solution kinase assays, α1β1γ1 AMPK was eluted from glutathione-Sepharose by incubating with purification buffer supplemented with 40 mM reduced glutathione (Sigma–Aldrich).
(§3) AMPK activity was determined by phosphorylation of the SAMS peptide (Purar Chemicals, sequence: NH2-HMRSAMSGLHLVKRR-COOH) in a 25 µl reaction volume containing 100 µM SAMS peptide, 5 mM MgCl2, 200 µM ATP, [γ-^32P]-ATP (PerkinElmer) and assay buffer (50 mM HEPES pH 7.4, 1 mM DTT and 0.02% (v/v) Tween-20) and purified AMPK. Phosphotransferase activity was conducted at 30°C for 10 min and reactions were quenched by spotting 15 µl onto phosphocellulose ion-exchange chromatography paper (made in-house), followed by repeated washes in 1% H3PO4 (Merck Millipore). Ultima Gold liquid scintillation fluid (5 ml; PerkinElmer) was added to vials containing dried phosphocellulose papers, and the level of ^32P-transfer to the SAMS peptide was determined using a Tri-Carb 2900TR liquid scintillation counter (PerkinElmer).

human GST-AMPK α1β2γ1 = target: T2, human GST-AMPK α1β2γ1 (Homo sapiens, UniProt O43741+Q13131); assay: as above; format: biochemical; conditions: 1 µM compound
T2 construct: triply transfected with full-length AMPK α1 or α2 (NH2-terminal GST fusion, pDEST27 vector); full-length AMPK α1 or α2 (NH2-terminal GST fusion, pDEST27 vector), β1 or β2 (COOH-terminal FLAG fusion, pcDNA3.1 vector); FLAG (C); made in house; host or cells: HEK293T/17 cells, transient triple transfection
From the text: as §1, §2, §3

human GST-AMPK α2β1γ1 = target: T3, human GST-AMPK α2β1γ1 (Homo sapiens, UniProt P54646+Q9Y478); assay: as above; format: biochemical; conditions: 1 µM compound
T3 construct: triply transfected with full-length AMPK α1 or α2 (NH2-terminal GST fusion, pDEST27 vector); full-length AMPK α1 or α2 (NH2-terminal GST fusion, pDEST27 vector), β1 or β2 (COOH-terminal FLAG fusion, pcDNA3.1 vector); FLAG (C); made in house; host or cells: HEK293T/17 cells, transient triple transfection
From the text: as §1, §2, §3

human GST-AMPK α1β1γ1 = target: T4, human GST-AMPK α1β1γ1 (Homo sapiens, UniProt Q13131+Q9Y478); assay: as above; format: biochemical; conditions: for fold AMPK activation relative to vehicle: 1 µM compound
T4 construct: triply transfected with full-length AMPK α1 or α2 (NH2-terminal GST fusion, pDEST27 vector); full-length AMPK α1 or α2 (NH2-terminal GST fusion, pDEST27 vector), β1 or β2 (COOH-terminal FLAG fusion, pcDNA3.1 vector); FLAG (C); made in house; host or cells: HEK293T/17 cells, transient triple transfection
From the text: as §1, §2, §3

γ1AMPK complexes = assay: Radiolabel kinase assay, immobilised GST-tagged γ1AMPK (stated across γ1 complexes); format: biochemical, human
From the text: We directly compared in vitro potencies of pan activators by performing radiolabel kinase assays with γ1AMPK complexes. Initially, we used GST-tagged γ1AMPK expressed in HEK293T/17 cells and immobilised on glutathione-Sepharose (Figure 2 and Table 2). […] These assays used AMPK purified from Sf9 insect cells or E. coli that was pre-treated with CaMKK2. […] However, relative to immobilised GST-α2β1γ1 from HEK293T/17 cells, His-tagged and myristoylated α2β1γ1 AMPK (expressed in E. coli, CaMKK2-treated and assayed in solution) was at least 10-fold more sensitive to activation by both MK-8722 and MSG011 (Supplementary Figure S3B), indicating the GST-affinity tag or CaMKK2 treatment may exert some influence on sensitivity to these activators.
as §2
AMPK activity was determined by phosphorylation of the SAMS peptide (Purar Chemicals, sequence: NH2-HMRSAMSGLHLVKRR-COOH) in a 25 µl reaction volume containing 100 µM SAMS peptide, 5 mM MgCl2, 200 µM ATP, [γ-^32P]-ATP (PerkinElmer) and assay buffer (50 mM HEPES pH 7.4, 1 mM DTT and 0.02% (v/v) Tween-20) and purified AMPK. […] Ultima Gold liquid scintillation fluid (5 ml; PerkinElmer) was added to vials containing dried phosphocellulose papers, and the level of ^32P-transfer to the SAMS peptide was determined using a Tri-Carb 2900TR liquid scintillation counter (PerkinElmer).

α2β2γ1 AMPK = system: α2β2γ1 AMPK; parameters: method as in PMID 29657085; conditions: α2β2γ1, in solution, mammalian cell-expressed AMPK; cited from earlier work
α1β2γ1 AMPK = system: α1β2γ1 AMPK; parameters: method as in PMID 29657085; conditions: α1β2γ1, in solution, mammalian cell-expressed AMPK, cited from earlier work
α1β1γ1 AMPK = system: α1β1γ1 AMPK; parameters: method as in PMID 29657085; conditions: α1β1γ1, in solution, mammalian cell-expressed AMPK; cited from earlier work
[1] = system: AMPK β1-Ser108 exchanged for Ala; parameters: method as in PMID 24352254, PMID 29657085; conditions: cited from earlier work

T4 sequence (Q13131 whole entry, the tested form may be a part): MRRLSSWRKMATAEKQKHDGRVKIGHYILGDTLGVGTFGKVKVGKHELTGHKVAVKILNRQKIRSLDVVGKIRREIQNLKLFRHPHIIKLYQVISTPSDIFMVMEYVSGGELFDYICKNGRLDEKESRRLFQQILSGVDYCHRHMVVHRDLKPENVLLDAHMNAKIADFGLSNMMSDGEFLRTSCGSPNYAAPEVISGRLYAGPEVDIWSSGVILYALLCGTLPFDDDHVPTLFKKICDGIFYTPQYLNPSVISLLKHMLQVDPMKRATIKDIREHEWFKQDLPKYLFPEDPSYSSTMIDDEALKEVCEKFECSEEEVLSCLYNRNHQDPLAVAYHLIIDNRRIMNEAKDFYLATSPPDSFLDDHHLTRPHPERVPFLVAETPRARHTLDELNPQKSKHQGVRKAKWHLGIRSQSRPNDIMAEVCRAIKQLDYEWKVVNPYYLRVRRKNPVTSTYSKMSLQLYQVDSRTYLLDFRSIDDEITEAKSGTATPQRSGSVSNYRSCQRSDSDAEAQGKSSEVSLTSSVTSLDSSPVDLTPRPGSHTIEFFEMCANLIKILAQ
T4 sequence (Q9Y478 whole entry, the tested form may be a part): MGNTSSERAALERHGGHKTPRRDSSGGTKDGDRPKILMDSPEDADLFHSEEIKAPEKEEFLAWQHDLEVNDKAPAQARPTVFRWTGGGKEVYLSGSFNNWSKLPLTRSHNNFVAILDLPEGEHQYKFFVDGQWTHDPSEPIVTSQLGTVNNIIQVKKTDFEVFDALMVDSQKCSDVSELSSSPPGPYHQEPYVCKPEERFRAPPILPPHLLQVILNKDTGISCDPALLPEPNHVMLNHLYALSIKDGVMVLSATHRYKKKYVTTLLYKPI
T4 sequence (P54619 whole entry partner, the tested form may be a part): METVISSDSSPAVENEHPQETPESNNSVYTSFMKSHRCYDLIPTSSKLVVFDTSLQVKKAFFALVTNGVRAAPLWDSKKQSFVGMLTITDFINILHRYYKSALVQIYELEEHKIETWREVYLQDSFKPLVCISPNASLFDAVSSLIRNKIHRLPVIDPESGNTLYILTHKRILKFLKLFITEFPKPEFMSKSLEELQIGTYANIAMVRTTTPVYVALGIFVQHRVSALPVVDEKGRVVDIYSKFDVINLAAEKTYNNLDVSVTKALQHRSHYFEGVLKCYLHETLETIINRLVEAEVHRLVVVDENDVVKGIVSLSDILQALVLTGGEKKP
T2 sequence (Q13131 whole entry, the tested form may be a part): as the sequence (Q13131 whole entry, the tested form may be a part) above
T2 sequence (O43741 whole entry, the tested form may be a part): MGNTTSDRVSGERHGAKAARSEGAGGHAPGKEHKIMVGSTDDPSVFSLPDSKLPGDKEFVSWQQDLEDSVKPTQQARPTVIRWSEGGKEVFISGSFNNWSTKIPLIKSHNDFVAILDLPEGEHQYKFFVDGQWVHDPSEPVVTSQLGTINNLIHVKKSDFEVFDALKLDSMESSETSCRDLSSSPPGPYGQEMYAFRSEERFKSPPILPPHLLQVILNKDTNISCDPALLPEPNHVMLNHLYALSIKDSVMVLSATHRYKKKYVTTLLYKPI
T2 sequence (P54619 whole entry partner, the tested form may be a part): as the sequence (P54619 whole entry partner, the tested form may be a part) above
T3 sequence (P54646 whole entry, the tested form may be a part): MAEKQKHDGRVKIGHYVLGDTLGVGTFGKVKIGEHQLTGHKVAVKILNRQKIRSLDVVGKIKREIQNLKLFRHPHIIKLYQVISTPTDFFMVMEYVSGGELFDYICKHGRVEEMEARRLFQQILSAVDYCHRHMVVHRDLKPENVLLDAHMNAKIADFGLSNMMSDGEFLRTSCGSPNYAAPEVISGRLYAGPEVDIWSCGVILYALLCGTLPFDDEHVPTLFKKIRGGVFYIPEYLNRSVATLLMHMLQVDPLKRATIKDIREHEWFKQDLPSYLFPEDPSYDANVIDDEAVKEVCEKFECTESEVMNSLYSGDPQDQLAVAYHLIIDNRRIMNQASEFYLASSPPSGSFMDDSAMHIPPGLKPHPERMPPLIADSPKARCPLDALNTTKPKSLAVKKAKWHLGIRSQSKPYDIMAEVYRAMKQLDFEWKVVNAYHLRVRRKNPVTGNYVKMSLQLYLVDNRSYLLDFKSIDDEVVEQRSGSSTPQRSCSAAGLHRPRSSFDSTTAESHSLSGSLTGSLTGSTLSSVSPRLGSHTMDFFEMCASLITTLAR
T3 sequence (Q9Y478 whole entry, the tested form may be a part): as the sequence (Q9Y478 whole entry, the tested form may be a part) above
T3 sequence (P54619 whole entry partner, the tested form may be a part): as the sequence (P54619 whole entry partner, the tested form may be a part) above
T1 sequence (P54646 whole entry, the tested form may be a part): as the sequence (P54646 whole entry, the tested form may be a part) above
T1 sequence (O43741 whole entry, the tested form may be a part): as the sequence (O43741 whole entry, the tested form may be a part) above
T1 sequence (P54619 whole entry partner, the tested form may be a part): as the sequence (P54619 whole entry partner, the tested form may be a part) above

Compound	fold AMPK activation relative to vehicle (human GST-AMPK α2β2γ1) [fold]	fold AMPK activation relative to vehicle (human GST-AMPK α1β2γ1) [fold]	fold AMPK activation relative to vehicle (human GST-AMPK α2β1γ1) [fold]	fold AMPK activation relative to vehicle (human GST-AMPK α1β1γ1) [fold]	reduction of activating potency on loss of β1-Ser108 phosphorylation via exchange for Ala [1] [fold]	also measured
Cc1ccc(Oc2nc3nc(-c4ccc(C5=CCC(C(=O)O)CC5)cc4)c(Cl)cc3[nH]2)cc1C(=O)O (centres unmarked) [MSG010, 4′-(2-(3-carboxy-4-methylphenoxy)-6-chloro-1H-imidazo[4,5-b]pyridin-5-yl)-2,3,4,5-tetrahydro-[1,1′-biphenyl]-4-carboxylic acid]	> 2.2	> 2.2	> 2.2	> 2.2	–	–
OCC1(c2ccc(-c3cc4nc(O[C@@H]5CO[C@H]6[C@@H]5OC[C@H]6O)[nH]c4cc3Cl)cc2)CC1 [PF-739, reference compound]	–	–	–	–	–	Max. fold activation (human GST-AMPK α1β1γ1; immobilised α1β1γ1): 1.7 fold; EC50 (human GST-AMPK α1β1γ1; immobilised α1β1γ1, 0–30 µM activator): 2.01 µM; EC50 fold higher than previously determined by high-throughput fluorescence-based assays in solution (γ1AMPK complexes; compared with refs 17, 18): 100–1000 fold; EC50 (γ1AMPK complexes; immobilised GST-γ1AMPK, read-out: EC50 values for γ1AMPK activation): 2 µM
Cc1ccc(Oc2nc3nc(-c4ccc(-c5ccccc5O)cc4)c(Cl)cc3[nH]2)cc1C(=O)O [SC4]	> 2.3	1.3	> 2.3	> 2.3	~4	EC50 (α2β2γ1 AMPK): 0.0172 µM; Max. fold activation (α2β2γ1 AMPK): 2.5 fold; EC50 (α1β2γ1 AMPK; R2 for curve fit = 0.773): 0.0286 µM; Max. fold activation (α1β2γ1 AMPK): 1.4 fold; EC50 (α1β1γ1 AMPK): 0.0051 µM; Max. fold activation (α1β1γ1 AMPK): 2.9 fold
Cc1ccc(Oc2nc3cc(-c4ccc5c(ccn5C)c4)c(Cl)cc3[nH]2)cc1C(=O)O [compound 991]	–	–	–	–	40	–
